According to US4439444A, “Amidobenzamides, their salts and pharmaceutical compositions containing them” (Sanofi, priority 1981, dated 1984):
“Also recorded” adds a separate entry of the source. Where two headings read alike, the source gives them in different places.

Experiments:
[1] = biological target: T1, gastric histamine H2 receptors (Rattus norvegicus, UniProt P25102); assay: antisecretory activity: antagonism of histamine-induced gastric acid hypersecretion in rat (Ghosh and Schild); type: in vivo; conditions: for Relative potency (cimetidine = 1): gastric H2, from ID50, rat i.v.; for ED50: rat, read-out: ID50 (dose which inhibits by 50% the gastric hypersecretion induced by histamine); for antisecretory (gastric H2 blocking) activity in words: comparison from Table I
T1 construct: the gastric secretion is measured by perfusion of a physiological solution at a constant speed in the stomach of the animal; from tissue; host or cells: stomach of the living rat (in vivo, intravenous histamine infusion)
Description: According to this test, a gastric acid hypersecretion is induced by intravenous infusion of a sub-maximal dose of histamine equivalent to 15 mcmol/kg/hour and the gastric secretion is measured by perfusion of a physiological solution at a constant speed in the stomach of the animal.
Such a ID50 represents the index of the gastric H2 blocking action.

[2] = biological target: T2, cardiac histamine H2 receptors (Cavia porcellus, UniProt P47747); assay: inhibition of the increase in frequency induced by histamine on the isolated right atrium of the guinea pig; type: cell-based; conditions: for Relative potency (cimetidine = 1): cardiac H2, from IC50, guinea pig right atrium
T2 construct: induced by histamine on the isolated right atrium of the guinea pig; from tissue; host or cells: isolated right atrium of the guinea pig
Excerpt: Such an IC50 represents the index of cardiac H2 blocking action.

[3] = test system: immature Sprague Dawley rats, castrated, testosterone-stimulated genitals and levator ani muscle; conditions: rat, in vivo, ip, 200 mg/kg/day
Description: Testosterone was administered by sub-cutaneous route, suspended in a vehicle for steroids, both at the dose of 0.2 mg/animal/day, and 0.4 mg/animal/day. […] As a control it was used a lot of animals treated with the vehicles only. The treatment lasted 8 days. The animals were killed 24 hours after the last injection, the ventral prostrate, the seminal vescicles and the levator ani were immediately drawn and weighed.

cardiac H2 receptors = conditions: Clinica Terapeutica, 1981, 96, 81-91; cited from earlier work
gastric acid secretion = conditions: rat; as oxalate; cited from earlier work
[4] = intravenous route, single administration, histamine infusion 15 mcmol/kg/hour

T1 sequence (P25102 whole entry, the tested form may be a part): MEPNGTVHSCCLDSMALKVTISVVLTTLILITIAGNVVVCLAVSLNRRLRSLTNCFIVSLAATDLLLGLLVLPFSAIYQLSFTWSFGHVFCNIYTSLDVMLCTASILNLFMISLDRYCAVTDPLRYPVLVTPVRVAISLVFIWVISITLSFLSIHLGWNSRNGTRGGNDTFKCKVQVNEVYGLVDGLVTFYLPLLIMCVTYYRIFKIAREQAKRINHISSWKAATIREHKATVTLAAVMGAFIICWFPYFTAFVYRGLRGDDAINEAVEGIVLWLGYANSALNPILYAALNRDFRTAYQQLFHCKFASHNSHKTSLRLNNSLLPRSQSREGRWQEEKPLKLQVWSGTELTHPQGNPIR
T2 sequence (P47747 whole entry): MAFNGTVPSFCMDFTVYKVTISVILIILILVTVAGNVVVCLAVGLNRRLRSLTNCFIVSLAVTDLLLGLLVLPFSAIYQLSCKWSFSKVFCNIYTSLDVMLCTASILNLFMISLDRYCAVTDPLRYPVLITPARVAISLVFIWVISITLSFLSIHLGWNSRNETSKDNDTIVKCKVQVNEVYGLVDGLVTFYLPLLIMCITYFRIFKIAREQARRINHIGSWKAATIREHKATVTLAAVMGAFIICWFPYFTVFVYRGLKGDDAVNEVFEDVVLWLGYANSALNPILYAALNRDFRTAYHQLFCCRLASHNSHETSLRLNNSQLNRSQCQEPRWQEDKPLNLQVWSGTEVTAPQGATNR

SMILES | Relative potency (cimetidine = 1) [1] | ED50 [1, 4] [µmol/kg] | Relative potency (cimetidine = 1) [2] | further results
CN(C)Cc1ccc(CSCCNC(=O)c2cccc(NS(=O)(=O)c3ccccc3)c2)o1 [CM 57888, 3-benzenesulfonamido-N-[2-(5-dimethylaminomethylfuran-2-ylmethylthio)ethyl]benzamide] |  |  |  | effect when testosterone was administered at the dose of 0.4 mg/animal/day [3]: did not exhibit any effect
CN/C(=N/CCSCc1nc[nH]c1C)NC#N [Cimetidine, 2-cyano-1-methyl-3-[2[(5-methylimidazol-4-yl)methylthio]ethyl]guanidine, reference compound] |  |  |  | ED50 ([1]; iv): 0.95 µmol/kg; side effects in the treatment of the ulcerous disease (cardiac H2 receptors): bradycardia and of the asystolia observed as side effects
CN(C)Cc1ccc(CSCCNC(=O)c2ccc(S(N)(=O)=O)cc2)o1 [Compound A, N-[2-(5-dimethylaminomethylfuran-2-ylmethylthio)ethyl]-4-sulfamoyl benzamide, reference compound] | 0.42 | 2.26 | 1.3 | cardiac H2 blocking activity in words (compared with cimetidine) ([2]; comparison from Table II): more active
CN(C)Cc1ccc(CSCCNC(=O)c2ccc(S(N)(=O)=O)cc2)o1 [N-[2-(5-dimethylaminomethylfuran-2-ylmethylthio)ethyl]-4-sulfamoylbenzamide] |  |  |  | ED50 in the gastric acid secretion inhibiting activity (gastric acid secretion): 2.54 mg/kg
CNC(=C[N+](=O)[O-])NCCSCc1ccc(CN(C)C)o1 [Ranitidine, N-[2[[5-[(dimethylamino)methyl]furfuryl]thio]ethyl]-N'-methyl-2-nitro-1,1-ethenediamine, reference compound] | 3.80 |  | 5 | ED50 ([1]; iv): 0.25 µmol/kg
CN(C)Cc1ccc(CSCCNC(=O)c2cccc(NC(=O)c3cccnc3)c2)o1.O=C(O)C(=O)O.O=C(O)C(=O)O [SR 57927 A, 3-(3-pyridinecarboxamido)-N-[2-(5-dimethylaminomethylfuran-2-ylmethylthio)ethyl]benzamide dioxalate] | 0.82 |  |  | ED50 ([1]; iv): 1.15 µmol/kg

Now from value to compound, other results behind:

Relative potency (cimetidine = 1) [1] | ED50 [1, 4] [µmol/kg] | Relative potency (cimetidine = 1) [2] | SMILES | further results
0.97 | 0.98 | 0.2 | CN(C)Cc1ccc(CSCCNC(=O)c2cccc(NS(C)(=O)=O)c2)o1 [CM 57822, 3-methanesulfonamido-N-[2-(5-dimethylaminomethylfuran-2-ylmethylthio)ethyl]benzamide] | 
2.88 | 0.33 | 0.08 | CN(C)Cc1ccc(CSCCNC(=O)c2cccc(NC(=O)c3ccc[n+]([O-])c3)c2)o1 [SR 57912, 3-[(3-pyridine 1-oxyde)carboxamido]-N-[2-(5-dimethylaminomethylfuran-2-ylmethylthio)ethyl]benzamide] | antisecretory (gastric H2 blocking) activity in words [1]: very powerful; also recorded: very close to that of ranitidine
0.82 | 1.15 | 0.06 | CN(C)Cc1ccc(CSCCNC(=O)c2cccc(NC(=O)c3cccs3)c2)o1 [SR 57922, 3-(2-thienylcarboxamido)-N-[2-(5-dimethylaminomethylfuran-2-ylmethylthio)ethyl]benzamide] | 
0.52 | 1.82 |  | CN(C)Cc1ccc(CSCCNC(=O)c2cccc(NS(=O)(=O)c3cccnc3)c2)o1 [SR 57933, 3-(3-pyridinesulfonamido)-N-[2-(5-dimethylaminomethylfuran-2-ylmethylthio)ethyl]benzamide] | 
1.02 | 0.93 |  | CN(C)Cc1ccc(CSCCNC(=O)c2cccc(NS(=O)(=O)c3cccs3)c2)o1 [SR 57975, 3-(2-thiophenesulfonamido)-N-[2-(5-dimethylaminomethylfuran-2-ylmethylthio)ethyl]benzamide] | 
1.94 | 0.49 |  | CCCCS(=O)(=O)Nc1cccc(C(=O)NCCSCc2ccc(CN(C)C)o2)c1 [SR 57981 A, 3-butanesulfonamido-N-[2-(5-dimethylaminomethylfuran-2-ylmethylthio)ethyl]benzamide] | antisecretory (gastric H2 blocking) activity in words [1]: very powerful
